Data: patent publication US11547102B2, “Method for screening saltiness enhancer using saltiness receptor” (NISSIN FOODS HOLDINGS CO., LTD., priority 2017, dated 2023)

Columns and labels:
human TMC4 (hTMC4) = target: T1, human TMC4 (hTMC4) (Homo sapiens, UniProt Q7Z404); test: whole cell patch clamp assay using HEK293T cells expressing hTMC4; type: cell-based; conditions: 100 μM added to vehicle solution (134 mM NaCl), same cells compared
T1 construct: host or cells: HEK293T
T1 sequence (Q7Z404 1-706 isoform Q7Z404-1): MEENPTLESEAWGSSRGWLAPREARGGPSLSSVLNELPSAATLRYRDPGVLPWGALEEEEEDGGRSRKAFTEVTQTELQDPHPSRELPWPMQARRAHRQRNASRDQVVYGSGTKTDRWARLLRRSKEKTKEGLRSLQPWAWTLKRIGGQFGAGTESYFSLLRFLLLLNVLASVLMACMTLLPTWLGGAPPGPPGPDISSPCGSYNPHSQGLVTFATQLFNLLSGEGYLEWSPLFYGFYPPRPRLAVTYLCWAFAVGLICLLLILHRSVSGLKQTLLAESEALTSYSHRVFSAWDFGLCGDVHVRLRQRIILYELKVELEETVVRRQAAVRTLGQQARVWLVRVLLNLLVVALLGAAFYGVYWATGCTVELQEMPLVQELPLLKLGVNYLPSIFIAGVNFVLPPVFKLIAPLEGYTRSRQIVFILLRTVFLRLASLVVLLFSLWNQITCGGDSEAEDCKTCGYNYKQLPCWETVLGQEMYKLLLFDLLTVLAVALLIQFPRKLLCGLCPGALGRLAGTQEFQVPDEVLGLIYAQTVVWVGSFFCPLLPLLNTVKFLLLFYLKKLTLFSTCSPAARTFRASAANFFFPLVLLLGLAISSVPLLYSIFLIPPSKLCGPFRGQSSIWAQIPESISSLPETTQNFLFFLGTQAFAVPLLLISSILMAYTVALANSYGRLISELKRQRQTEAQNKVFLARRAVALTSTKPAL
Experimental: In order to observe influence of a known salty taste enhancer on TMC4, the whole cell patch clamp assay (whole cell recording) was performed by using HEK293T cells expressing human TMC4 (hTMC4).
The whole cell patch clamp assay was performed in the same manner as in Example 2 except for the following:
1) HEK293T cells expressing human TMC4 (hTMC4) were used; and
2) a 134 mM NaCl solution was used as a vehicle solution, an extracellular fluid obtained by adding 100 μM arginine hydrochloride (Arg-HCl) as a salty taste enhancer to the vehicle solution, and an extracellular fluid (control not enhancing salty taste) obtained by adding 100 μM sucrose or maltose to the vehicle solution were used. A Cl^− current flowing via TMC4 was compared.
As for the hTMC4, a clone of Accession No. BC025323 was purchased from Dharmacon, and inserted between restriction enzyme EcoR1 site and Not1 site of the plasmid pIRES2-AcGFP1 to create an expression construct in the same manner as that for the mTMC4.

mouse TMC4 (mTMC4) = target: T2, mouse TMC4 (mTMC4) (Mus musculus, UniProt Q7TQ65); test: whole cell patch clamp assay using HEK293T cells expressing mTMC4; type: cell-based; conditions: 100 μM added to the 134 mM NaCl buffer, 25° C.
T2 construct: expressed in transfected cells; host or cells: HEK293T
T2 sequence (Q7TQ65 1-694): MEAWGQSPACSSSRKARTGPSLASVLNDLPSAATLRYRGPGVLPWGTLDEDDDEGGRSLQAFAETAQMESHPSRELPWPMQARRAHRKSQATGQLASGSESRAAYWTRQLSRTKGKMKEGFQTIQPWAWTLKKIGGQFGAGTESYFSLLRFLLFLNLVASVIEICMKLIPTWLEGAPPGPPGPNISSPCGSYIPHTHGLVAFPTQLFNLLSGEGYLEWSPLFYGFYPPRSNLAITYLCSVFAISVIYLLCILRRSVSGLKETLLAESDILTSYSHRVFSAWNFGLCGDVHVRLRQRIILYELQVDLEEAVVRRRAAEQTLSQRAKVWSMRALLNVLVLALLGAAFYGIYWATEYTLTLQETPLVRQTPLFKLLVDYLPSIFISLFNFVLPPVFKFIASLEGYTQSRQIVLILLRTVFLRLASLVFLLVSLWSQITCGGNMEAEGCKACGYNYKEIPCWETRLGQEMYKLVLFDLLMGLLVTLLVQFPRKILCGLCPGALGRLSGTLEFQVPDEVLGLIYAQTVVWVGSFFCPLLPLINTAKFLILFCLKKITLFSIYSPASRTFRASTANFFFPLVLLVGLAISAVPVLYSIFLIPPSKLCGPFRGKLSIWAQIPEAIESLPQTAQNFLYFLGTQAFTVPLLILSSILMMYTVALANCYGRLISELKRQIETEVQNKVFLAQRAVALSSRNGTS
Experimental: In order to check electrophysiological properties of TMC4, a whole cell patch clamp assay (whole cell recording) was performed using HEK293T cells expressing TMC4.
In order to express mouse TMC4 (mTMC4) in HEK293T cells, a plasmid vector pIRES2-AcGFP1 (Clontech Laboratories, Inc.) having a CMV promoter was used. An expression construct in which mTMC4 (sequence of Accession No. NM_181820.2 cloned from cDNA derived from mouse circumvallate papillae epithelium) was inserted between restriction enzyme EcoR1 site and Not1 site of pIRES2-AcGFP1 was transfected at a ratio of 1 μg/35 mm dish. As a transfection reagent, Lipofectamine™ LTX Reagent with PLUS & Reagent™ (Thermo Fisher Scientific K.K.) was used. […]
In the whole cell patch clamp recording using the HEK293T cells, Axopatch 200B (Molecular Devices, LLC.) was used as an amplifier, and digital data was obtained from Digidata 1550 (Axon Instruments, Union City, Calif., USA). The obtained data was analyzed using software pCLAMP 10.2 (Axon Instruments). […]
The measurement was performed with the membrane potential of mTMC4-expressing cells fixed at −60 mV with extracellular fluids successively perfused. A step pulse (400 ms) from −100 mV to +100 mV at intervals of 10 mV was applied to each extracellular fluid to create an I-V curve, and thus, voltage-current characteristics of mTMC4 obtained with different extracellular fluids were measured. […]

SMILES	Cl- current flowing via TMC4 (human TMC4 (hTMC4))	outward Cl- current (mouse TMC4 (mTMC4))
OC[C@H]1O[C@H](O[C@H]2[C@H](O)[C@@H](O)C(O)O[C@@H]2CO)[C@H](O)[C@@H](O)[C@@H]1O (mixture of isomers) [maltose]	did not change	–
O=C(O)c1cc([N+](=O)[O-])ccc1NCCCc1ccccc1 [NPPB, 5-Nitro-2-(3-phenylpropylamino) benzoic acid]	–	completely disappeared
Cl.N=C(N)NCCC[C@H](N)C(=O)O [arginine hydrochloride]	increased	–
OC[C@H]1O[C@@](CO)(O[C@H]2O[C@H](CO)[C@@H](O)[C@H](O)[C@H]2O)[C@@H](O)[C@@H]1O [sucrose]	did not change	–
